Reference: ChEMBL document CHEMBL1201862, “PubChem BioAssay data set” (2004)
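The compound was tested at five concentrations on cells cultured in 96-well plates, with a 48-hour exposure period. At the GI50, growth is halved.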 Calls of active or inactive are those of the source. No stated cut-off is given here; in the data, active = GI50 up to about 1.1 µM and inactive = higher.

Tests used:
Assay in all cases: DTP human tumour cell line panel, 48 h
[1] = test system: SK-OV-3
[2] = test system: SF-295
[3] = test system: SF-268
[4] = test system: NCI-H522
[5] = test system: HOP-18
[6] = test system: HOP-62
[7] = test system: UACC-257
[8] = test system: NCI-H460
[9] = test system: MOLT-4
[10] = test system: 786-0
[11] = test system: Malme-3M
[12] = test system: SK-MEL-28
[13] = test system: SF-539
[14] = test system: NCI-H226
[15] = test system: DLD-1
[16] = test system: SR
[17] = test system: DU-145
[18] = test system: T47D
[19] = test system: MDA-MB-231
[20] = test system: MCF7

Measured: GI50

C[C@]12CCC3[C@@H](CC[C@@H]4c5nonc5CC[C@]34C)C1CCC2=O (some centres not stated)
inactive: [1] 36.7 µM | [2] 24.1 µM | [3] 33.6 µM | [4] 16.2 µM | [5] 43.9 µM | [6] 40.6 µM | [7] 18 µM | [8] 19.2 µM | [9] 23.2 µM | [10] 23.8 µM | [11] 23.3 µM | [12] 24.7 µM | [13] 20.4 µM | [14] 20 µM

COC(=O)CCC(=O)CC(=O)C(=O)Nc1ccc(F)cc1
inactive: [1] > 100 µM | [15] > 100 µM | [3] > 100 µM | [4] > 100 µM | [5] > 100 µM | [6] > 100 µM | [7] > 100 µM | [8] > 100 µM | [9] > 100 µM | [10] > 100 µM | [11] > 100 µM | [12] > 100 µM | [13] > 100 µM | [14] > 100 µM

O=C(O)CN(c1ccc(F)cc1)S(=O)(=O)c1ccccc1
inactive: [1] > 100 µM | [15] > 100 µM | [2] > 100 µM | [3] > 100 µM | [4] > 100 µM | [5] > 100 µM | [7] > 100 µM | [8] > 100 µM | [9] > 100 µM | [10] > 100 µM | [11] > 100 µM | [12] > 100 µM | [13] > 100 µM | [14] > 100 µM

O=C1C=CC(=O)c2c1ccc1c3ccccc3n(-c3ccccn3)c21
inactive: [1] > 100 µM | [15] 16.5 µM | [2] > 100 µM | [3] 31.7 µM | [4] 4.15 µM | [5] 14.8 µM | [7] 18.5 µM | [8] > 100 µM | [9] 4.8 µM | [10] 15.2 µM | [11] 17.8 µM | [12] > 100 µM | [13] 32 µM | [14] 13.2 µM

Cc1cc2c(cc1C)[n+]([O-])c(C(=O)CC(=O)C(=O)Nc1ccccc1C)c(C)[n+]2[O-]
inactive: [1] > 100 µM | [16] 38 µM | [2] > 100 µM | [3] > 100 µM | [4] 54 µM | [5] 30.5 µM | [6] > 100 µM | [7] > 100 µM | [8] 80.5 µM | [9] > 100 µM | [10] > 100 µM | [11] > 100 µM | [12] > 100 µM | [13] > 100 µM | [14] > 100 µM

CCOc1ccc2c(c1)[n+]([O-])c(-c1ccc(Br)cc1)c(N)[n+]2[O-]
inactive: [1] > 100 µM | [15] 99.5 µM | [2] > 100 µM | [3] 42.8 µM | [4] 16.6 µM | [5] 57.4 µM | [6] 67.6 µM | [7] 59.4 µM | [8] 47.3 µM | [9] 40.9 µM | [10] > 100 µM | [11] 55.6 µM | [12] 30.9 µM | [13] 34.4 µM | [14] > 100 µM

O=S1(=O)NN=C(NCc2ccc(Cl)cc2)c2ccccc21
inactive: [15] 95.1 µM | [2] > 100 µM | [3] > 100 µM | [7] > 100 µM | [8] > 100 µM | [9] 22.8 µM | [10] 54.5 µM | [11] > 100 µM | [13] > 100 µM | [14] > 100 µM

CCCCCCCCCC1CC(=O)NCC(=O)NC(C(C)C)C(=O)NC(CC(C)C)C(=O)NC(C)C(=O)NC(C(C)C)C(=O)O1 (configuration not stated)
inactive: [1] 16.6 µM | [17] 21.9 µM | [16] 13.3 µM | [2] 13.3 µM | [3] 4.55 µM | [4] 14 µM | [6] 22.5 µM | [18] 20.5 µM | [7] 38.8 µM | [19] 10.2 µM | [20] 17.8 µM | [8] 5.38 µM | [9] 13.3 µM | [10] 12.2 µM | [11] 22.6 µM | [12] 15.2 µM | [13] 19.1 µM | [14] 36.6 µM

O=C1CC(n2cccc2)c2c(Br)sc(Br)c21 (configuration not stated)
inactive: [1] 19.4 µM | [17] 16.6 µM | [16] 3.89 µM | [2] 23.3 µM | [3] 14.8 µM | [4] 1.49 µM | [6] 22.1 µM | [18] 18.1 µM | [7] 15.1 µM | [19] 15.7 µM | [20] 12 µM | [8] 18 µM | [9] 8.93 µM | [10] 18.3 µM | [11] 18.5 µM | [12] 20.3 µM | [13] 17.6 µM | [14] 18.8 µM
